Measurements published in patent US12398107B2, “Fungicidal nitroanilino substituted pyrazoles” (FMC Corporation, priority 2018, dated 2025).

Experiments:
Assay type in all cases: in vivo
[1] = test system: Blumeria graminis f. sp. tritici; experiment: Test C: wheat powdery mildew, preventive spray on wheat seedlings; details: 50 ppm, rated after 8 days, 100 = 100% disease control, 0 = no control; for pest or weed control at 50 ppm: Blumeria graminis, 192 h, read-out: Test C disease control rating (wheat powdery mildew)
In short: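 Wheat seedlings got a run-off spray of test suspension (ppm in acetone/water 50/50, 250 ppm PEG400, acetone 3% of volume), then spore-dust inoculation with wheat powdery mildew one day later. After 8 days' growth-chamber incubation at 20° C, disease control scored visually on a 0–100 scale versus untreated controls.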

[2] = test system: Alternaria solani; experiment: Test F: tomato early blight, preventive spray on tomato seedlings; details: 50 ppm, 100 = 100% disease control, 0 = no control; for pest or weed control at 50 ppm: Alternaria solani, read-out: Test F disease control rating (tomato early blight)
In short: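 Preventive test: one day after seedlings were sprayed to run-off with ppm-level suspensions (acetone/water 50/50, 250 ppm PEG400), A. solani spore inoculation followed. Incubation was 48 h at 27° C in saturated air plus 3 days at 20° C; disease control was scored visually versus controls (100 = full control).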

[3] = test system: Phakopsora pachyrhizi; experiment: Test D: Asian soybean rust, preventive spray on soybean seedlings; details: 50 ppm, 100 = 100% disease control, 0 = no control; for pest or weed control at 50 ppm: Phakopsora pachyrhizi, read-out: Test D disease control rating (Asian soybean rust)
In short: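 Soybean seedlings sprayed to run-off with compound suspension (ppm, in 50/50 acetone/water with 250 ppm PEG400), inoculated next day with P. pachyrhizi spores, held 24 h saturated at 22°C then 8 days at 22°C. Visual rating 0-100% disease control relative to controls.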

[4] = test system: Botrytis cinerea; experiment: Test E: tomato Botrytis, preventive spray on tomato seedlings; details: 50 ppm, 100 = 100% disease control, 0 = no control; for pest or weed control at 50 ppm: Botrytis cinerea, read-out: Test E disease control rating (tomato Botrytis)
In short: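 Preventive test: spore inoculation one day after run-off spraying of compound suspension (3% acetone, acetone/water 50/50, 250 ppm PEG400). Incubation 20 °C saturated humidity for 48 h, followed by 3 days at 24 °C growth chamber; disease control scored visually, 100 = full control.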

[5] = test system: Septoria tritici; experiment: Test A: wheat leaf blotch, preventive spray on wheat seedlings; details: 50 ppm, 100 = 100% disease control, 0 = no control relative to controls; for pest or weed control at 50 ppm: Zymoseptoria tritici, read-out: Test A disease control rating (wheat leaf blotch)
In short: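 Preventive test: seedlings sprayed to run-off one day before Septoria tritici spore inoculation, with ppm doses in acetone/water containing 250 ppm PEG400. After 48 h at 24 °C in saturated air and 17 days at 20 °C, plants were scored 0–100 for disease control versus untreated controls.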

[6] = test system: Puccinia recondita f. sp. tritici; experiment: Test B: wheat leaf rust, preventive spray on wheat seedlings; details: 50 ppm, 100 = 100% disease control, 0 = no control relative to controls; for pest or weed control at 50 ppm: read-out: Test B disease control rating (wheat leaf rust)
In short: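 Wheat seedlings got a run-off spray (ppm, acetone/water 50/50, 250 ppm PEG400) and one day later a spore inoculum. After 24 h at 20° C. in saturated air and 7 days at 20° C., disease was scored as % control relative to controls (100 = full control).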

SMILES: COc1ccc(Nc2c(-c3ccc(C#N)cc3F)c(C)nn2C)c([N+](=O)[O-])c1 [Compound 179]
- Test C disease control rating (wheat powdery mildew) [1]: 93%
- Test F disease control rating (tomato early blight) [2]: 85%
- Test D disease control rating (Asian soybean rust) [3]: 0%
- Test E disease control rating (tomato Botrytis) [4]: 99%
- Test A disease control rating (wheat leaf blotch) [5]: 100%
- Test B disease control rating (wheat leaf rust) [6]: 96%

SMILES: Cc1nn(C)c(Nc2c(F)cc(Br)cc2[N+](=O)[O-])c1-c1ccc(Cl)cc1Cl [Compound 132]
- Test C disease control rating (wheat powdery mildew) [1]: 47%
- Test F disease control rating (tomato early blight) [2]: 96%
- Test D disease control rating (Asian soybean rust) [3]: 0%
- Test E disease control rating (tomato Botrytis) [4]: 99%
- Test A disease control rating (wheat leaf blotch) [5]: 100%
- Test B disease control rating (wheat leaf rust) [6]: 98%

SMILES: Cc1nn(C)c(Nc2c(Cl)cccc2[N+](=O)[O-])c1-c1ccc(F)cc1Cl [Compound 108]
- Test C disease control rating (wheat powdery mildew) [1]: 97%
- Test F disease control rating (tomato early blight) [2]: 77%
- Test D disease control rating (Asian soybean rust) [3]: 86%
- Test E disease control rating (tomato Botrytis) [4]: 100%
- Test A disease control rating (wheat leaf blotch) [5]: 100%
- Test B disease control rating (wheat leaf rust) [6]: 100%

SMILES: COc1ccc(Nc2c(-c3c(F)cc(C#N)cc3F)c(C)nn2C)c([N+](=O)[O-])c1 [Compound 150]
- Test C disease control rating (wheat powdery mildew) [1]: 98%
- Test F disease control rating (tomato early blight) [2]: 99%
- Test D disease control rating (Asian soybean rust) [3]: 13%
- Test E disease control rating (tomato Botrytis) [4]: 100%
- Test A disease control rating (wheat leaf blotch) [5]: 100%
- Test B disease control rating (wheat leaf rust) [6]: 100%

SMILES: COc1ccc(-c2c(C)nn(C)c2Nc2c(Cl)cc(C)cc2[N+](=O)[O-])c(Cl)c1 [Compound 66]
- Test C disease control rating (wheat powdery mildew) [1]: 98%
- Test F disease control rating (tomato early blight) [2]: 96%
- Test D disease control rating (Asian soybean rust) [3]: 97%
- Test E disease control rating (tomato Botrytis) [4]: 98%
- Test A disease control rating (wheat leaf blotch) [5]: 100%
- Test B disease control rating (wheat leaf rust) [6]: 100%

SMILES: Cc1nn(C)c(Nc2ccc(OCC#N)cc2[N+](=O)[O-])c1-c1ccc(F)cc1Cl [Compound 29]
- Test C disease control rating (wheat powdery mildew) [1]: 87%
- Test F disease control rating (tomato early blight) [2]: 26%
- Test D disease control rating (Asian soybean rust) [3]: 81%
- Test E disease control rating (tomato Botrytis) [4]: 99%
- Test A disease control rating (wheat leaf blotch) [5]: 97%
- Test B disease control rating (wheat leaf rust) [6]: 98%

SMILES: Cn1nc(C#N)c(-c2ccc(F)cc2Cl)c1Nc1c(F)cccc1[N+](=O)[O-] [Compound 122]
- Test C disease control rating (wheat powdery mildew) [1]: 94%
- Test F disease control rating (tomato early blight) [2]: 99%
- Test D disease control rating (Asian soybean rust) [3]: 0%
- Test E disease control rating (tomato Botrytis) [4]: 100%
- Test A disease control rating (wheat leaf blotch) [5]: 100%
- Test B disease control rating (wheat leaf rust) [6]: 100%

SMILES: CCc1nn(C)c(Nc2c(F)cccc2[N+](=O)[O-])c1-c1ccc(F)cc1F [Compound 46]
- Test C disease control rating (wheat powdery mildew) [1]: 99%
- Test F disease control rating (tomato early blight) [2]: 81%
- Test D disease control rating (Asian soybean rust) [3]: 0%
- Test E disease control rating (tomato Botrytis) [4]: 99%
- Test A disease control rating (wheat leaf blotch) [5]: 100%
- Test B disease control rating (wheat leaf rust) [6]: 98%

SMILES: Cc1cc(Cl)c(Nc2c(-c3c(F)cccc3F)c(C)nn2C)c([N+](=O)[O-])c1 [Compound 100]
- Test C disease control rating (wheat powdery mildew) [1]: 21%
- Test F disease control rating (tomato early blight) [2]: 0%
- Test D disease control rating (Asian soybean rust) [3]: 0%
- Test E disease control rating (tomato Botrytis) [4]: 26%
- Test A disease control rating (wheat leaf blotch) [5]: 100%
- Test B disease control rating (wheat leaf rust) [6]: 89%

SMILES: COc1cc(F)c(Nc2c(-c3c(F)cccc3F)c(C)nn2C)c([N+](=O)[O-])c1 [Compound 97]
- Test C disease control rating (wheat powdery mildew) [1]: 100%
- Test F disease control rating (tomato early blight) [2]: 99%
- Test D disease control rating (Asian soybean rust) [3]: 96%
- Test E disease control rating (tomato Botrytis) [4]: 100%
- Test A disease control rating (wheat leaf blotch) [5]: 100%
- Test B disease control rating (wheat leaf rust) [6]: 100%

SMILES: CCc1nn(C)c(Nc2ccc(C)cc2[N+](=O)[O-])c1-c1ccc(F)cc1Cl [Compound 174]
- Test C disease control rating (wheat powdery mildew) [1]: 92%
- Test F disease control rating (tomato early blight) [2]: 39%
- Test D disease control rating (Asian soybean rust) [3]: 0%
- Test E disease control rating (tomato Botrytis) [4]: 99%
- Test A disease control rating (wheat leaf blotch) [5]: 100%
- Test B disease control rating (wheat leaf rust) [6]: 95%

SMILES: Cc1cccc([N+](=O)[O-])c1Nc1c(-c2ccc(Cl)cc2Cl)c(C)nn1C [Compound 144]
- Test C disease control rating (wheat powdery mildew) [1]: 35%
- Test F disease control rating (tomato early blight) [2]: 0%
- Test D disease control rating (Asian soybean rust) [3]: 69%
- Test E disease control rating (tomato Botrytis) [4]: 0%
- Test A disease control rating (wheat leaf blotch) [5]: 100%
- Test B disease control rating (wheat leaf rust) [6]: 68%

SMILES: CCc1nn(C)c(Nc2c(F)cc(C)cc2[N+](=O)[O-])c1-c1ccc(F)cc1Cl [Compound 137]
- Test C disease control rating (wheat powdery mildew) [1]: 100%
- Test F disease control rating (tomato early blight) [2]: 99%
- Test D disease control rating (Asian soybean rust) [3]: 91%
- Test E disease control rating (tomato Botrytis) [4]: 99%
- Test A disease control rating (wheat leaf blotch) [5]: 100%
- Test B disease control rating (wheat leaf rust) [6]: 100%

SMILES: COc1cc(F)c(-c2c(C)nn(C)c2Nc2c(F)cc(F)cc2[N+](=O)[O-])c(F)c1 [Compound 84]
- Test C disease control rating (wheat powdery mildew) [1]: 99%
- Test F disease control rating (tomato early blight) [2]: 99%
- Test D disease control rating (Asian soybean rust) [3]: 48%
- Test E disease control rating (tomato Botrytis) [4]: 90%
- Test A disease control rating (wheat leaf blotch) [5]: 100%
- Test B disease control rating (wheat leaf rust) [6]: 100%

SMILES: Cc1nn(C)c(N(C)c2c(F)cccc2[N+](=O)[O-])c1-c1ccc(F)cc1Cl [Compound 172]
- pest or weed control at 50 ppm [1]: 100%
- pest or weed control at 50 ppm [2]: 40%
- pest or weed control at 50 ppm [3]: 0%
- pest or weed control at 50 ppm [4]: 99%
- pest or weed control at 50 ppm [5]: 100%
- pest or weed control at 50 ppm [6]: 100%

SMILES: Cc1nn(C)c(Nc2c(Cl)cc(Cl)cc2[N+](=O)[O-])c1-c1ccc(C#N)cc1Cl [Compound 116]
- Test C disease control rating (wheat powdery mildew) [1]: 56%
- Test F disease control rating (tomato early blight) [2]: 82%
- Test D disease control rating (Asian soybean rust) [3]: 0%
- Test E disease control rating (tomato Botrytis) [4]: 63%
- Test A disease control rating (wheat leaf blotch) [5]: 99%
- Test B disease control rating (wheat leaf rust) [6]: 99%

SMILES: Cc1nn(C)c(Nc2c(Cl)cc(Cl)cc2[N+](=O)[O-])c1-c1c(F)cccc1F [Compound 96]
- Test C disease control rating (wheat powdery mildew) [1]: 0%
- Test F disease control rating (tomato early blight) [2]: 0%
- Test D disease control rating (Asian soybean rust) [3]: 0%
- Test E disease control rating (tomato Botrytis) [4]: 80%
- Test A disease control rating (wheat leaf blotch) [5]: 100%
- Test B disease control rating (wheat leaf rust) [6]: 95%

SMILES: Cc1nn(C)c(Nc2c(Cl)cccc2[N+](=O)[O-])c1-c1ccc(C#N)cc1Cl [Compound 123]
- Test C disease control rating (wheat powdery mildew) [1]: 81%
- Test F disease control rating (tomato early blight) [2]: 66%
- Test D disease control rating (Asian soybean rust) [3]: 0%
- Test E disease control rating (tomato Botrytis) [4]: 100%
- Test A disease control rating (wheat leaf blotch) [5]: 100%
- Test B disease control rating (wheat leaf rust) [6]: 97%

SMILES: Cc1nn(C)c(Nc2ccc(F)cc2[N+](=O)[O-])c1-c1ccc(F)cc1Cl [Compound 111, 4-(2-chloro-4-fluorophenyl)-N-(4-fluoro-2-nitrophenyl)-1,3-dimethyl-1H-pyrazol-5-amine]
- pest or weed control at 50 ppm [1]: 99%
- pest or weed control at 50 ppm [2]: 93%
- pest or weed control at 50 ppm [3]: 0%
- pest or weed control at 50 ppm [4]: 100%
- pest or weed control at 50 ppm [5]: 100%
- pest or weed control at 50 ppm [6]: 99%

SMILES: Cc1nn(C)c(Nc2c(Cl)cc(F)cc2[N+](=O)[O-])c1-c1c(F)cccc1Cl [Compound 49]
- Test C disease control rating (wheat powdery mildew) [1]: 95%
- Test F disease control rating (tomato early blight) [2]: 26%
- Test D disease control rating (Asian soybean rust) [3]: 25%
- Test E disease control rating (tomato Botrytis) [4]: 94%
- Test A disease control rating (wheat leaf blotch) [5]: 100%
- Test B disease control rating (wheat leaf rust) [6]: 100%

SMILES: Cc1nn(C)c(Nc2c(Cl)cccc2[N+](=O)[O-])c1-c1c(F)cccc1Cl [Compound 38]
- Test C disease control rating (wheat powdery mildew) [1]: 95%
- Test F disease control rating (tomato early blight) [2]: 0%
- Test D disease control rating (Asian soybean rust) [3]: 0%
- Test E disease control rating (tomato Botrytis) [4]: 88%
- Test A disease control rating (wheat leaf blotch) [5]: 100%
- Test B disease control rating (wheat leaf rust) [6]: 99%
